Reference: ChEMBL document CHEMBL1201862, “PubChem BioAssay data set” (2004)
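Interpolation was linear, between the two tested concentrations surrounding the appropriate level; five concentrations were tested over 48 hours in 96-well plates. Here, GI50 denotes the concentration required for 50% inhibition of growth.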 Active and inactive are the calls of the source. No stated cut-off is given here; in the data, active = GI50 up to about 1.1 µM and inactive = higher.

Assays:
Assay in all cases: NCI anticancer screen, dose series, 48 h
HOP-62 = tested on: HOP-62
SR = tested on: SR
HCT-15 = tested on: HCT-15
UO-31 = tested on: UO-31
NCI-H23 = tested on: NCI-H23
SNB-75 = tested on: SNB-75
M19-MEL = tested on: M19-MEL
DMS-114 = tested on: DMS-114
K562 = tested on: K562
OVCAR-4 = tested on: OVCAR-4
Malme-3M = tested on: Malme-3M
NCI-H522 = tested on: NCI-H522
CAKI-1 = tested on: CAKI-1
ACHN = tested on: ACHN
SF-268 = tested on: SF-268
OVCAR-8 = tested on: OVCAR-8
RXF 393 = tested on: RXF 393
DLD-1 = tested on: DLD-1
SW-620 = tested on: SW-620
OVCAR-3 = tested on: OVCAR-3
UACC-257 = tested on: UACC-257
U-251 = tested on: U-251
SK-MEL-2 = tested on: SK-MEL-2
HOP-18 = tested on: HOP-18
IGROV-1 = tested on: IGROV-1
HT-29 = tested on: HT-29
SF-539 = tested on: SF-539
SK-MEL-5 = tested on: SK-MEL-5
COLO 205 = tested on: COLO 205
SK-MEL-28 = tested on: SK-MEL-28
MOLT-4 = tested on: MOLT-4
NCI-H460 = tested on: NCI-H460
HOP-92 = tested on: HOP-92
TK-10 = tested on: TK-10
HL-60 = tested on: HL-60
LXFL 529 = tested on: LXFL 529
M14 = tested on: M14
NCI-H226 = tested on: NCI-H226
A549 = tested on: A549
KM12 = tested on: KM12
CCRF-CEM = tested on: CCRF-CEM
SNB-78 = tested on: SNB-78
KM-20L2 = tested on: KM-20L2
SN12C = tested on: SN12C
OVCAR-5 = tested on: OVCAR-5
HCT-116 = tested on: HCT-116
UACC-62 = tested on: UACC-62
LOX IMVI = tested on: LOX IMVI
SK-OV-3 = tested on: SK-OV-3
786-0 = tested on: 786-0
SF-295 = tested on: SF-295
SNB-19 = tested on: SNB-19
RPMI-8226 = tested on: RPMI-8226
DMS-273 = tested on: DMS-273
XF498 = tested on: XF498
EKVX = tested on: EKVX
A498 = tested on: A498
HCC 2998 = tested on: HCC 2998

COc1cc2c(c3c1c(=O)c1ccccc1n3C)C=CC(C)(C)O2 [ACRONINE]
GI50 (HOP-62): 46.9 µM (inactive) | GI50 (SR): 0.885 µM (active) | GI50 (HCT-15): 45.3 µM | GI50 (UO-31): 49.9 µM (inactive) | GI50 (NCI-H23): 33.4 µM (inactive) | GI50 (SNB-75): 82.6 µM (inactive) | GI50 (M19-MEL): 72.3 µM (inactive) | GI50 (DMS-114): 45.4 µM (inactive) | GI50 (K562): 52.1 µM (inactive) | GI50 (OVCAR-4): > 100 µM (inactive) | GI50 (Malme-3M): > 100 µM (inactive) | GI50 (NCI-H522): 18.5 µM (inactive) | GI50 (CAKI-1): > 100 µM (inactive) | GI50 (ACHN): 45.4 µM (inactive) | GI50 (SF-268): > 100 µM (inactive) | GI50 (OVCAR-8): > 100 µM (inactive) | GI50 (RXF 393): 25.1 µM (inactive) | GI50 (DLD-1): > 100 µM (inactive) | GI50 (SW-620): > 100 µM (inactive) | GI50 (OVCAR-3): > 100 µM (inactive) | GI50 (UACC-257): > 100 µM (inactive) | GI50 (U-251): > 100 µM (inactive) | GI50 (SK-MEL-2): > 100 µM (inactive) | GI50 (HOP-18): 56 µM (inactive) | GI50 (IGROV-1): 58.5 µM (inactive) | GI50 (HT-29): 56.9 µM (inactive) | GI50 (SF-539): 37.8 µM (inactive) | GI50 (SK-MEL-5): > 100 µM (inactive) | GI50 (COLO 205): > 100 µM (inactive) | GI50 (SK-MEL-28): 48.6 µM (inactive) | GI50 (MOLT-4): 16.2 µM (inactive) | GI50 (NCI-H460): 43.6 µM (inactive) | GI50 (HOP-92): > 100 µM (inactive) | GI50 (TK-10): > 100 µM (inactive) | GI50 (HL-60): 60.7 µM (inactive) | GI50 (LXFL 529): 94 µM (inactive) | GI50 (M14): > 100 µM (inactive) | GI50 (NCI-H226): > 100 µM (inactive) | GI50 (A549): > 100 µM (inactive) | GI50 (KM12): > 100 µM (inactive) | GI50 (CCRF-CEM): 79.1 µM (inactive) | GI50 (SNB-78): > 100 µM (inactive) | GI50 (KM-20L2): 49.9 µM (inactive) | GI50 (SN12C): > 100 µM (inactive) | GI50 (OVCAR-5): > 100 µM (inactive) | GI50 (HCT-116): > 100 µM (inactive) | GI50 (UACC-62): 96.2 µM (inactive) | GI50 (LOX IMVI): > 100 µM (inactive) | GI50 (SK-OV-3): > 100 µM (inactive) | GI50 (786-0): 71 µM (inactive) | GI50 (SF-295): 32.3 µM (inactive) | GI50 (SNB-19): > 100 µM (inactive) | GI50 (RPMI-8226): 27.9 µM (inactive) | GI50 (DMS-273): 23.3 µM (inactive)

O=c1cc2ccccc2nn1-c1ccccc1Cl
GI50 (HOP-62): > 100 µM (inactive) | GI50 (HCT-15): 92.5 µM | GI50 (UO-31): 26.2 µM (inactive) | GI50 (NCI-H23): 67.9 µM (inactive) | GI50 (SNB-75): 59.6 µM (inactive) | GI50 (M19-MEL): > 100 µM (inactive) | GI50 (DMS-114): 48.3 µM (inactive) | GI50 (K562): 59.6 µM (inactive) | GI50 (OVCAR-4): > 100 µM (inactive) | GI50 (Malme-3M): > 100 µM (inactive) | GI50 (CAKI-1): > 100 µM (inactive) | GI50 (ACHN): > 100 µM (inactive) | GI50 (SF-268): 85.7 µM (inactive) | GI50 (XF498): 27 µM (inactive) | GI50 (OVCAR-8): > 100 µM (inactive) | GI50 (DLD-1): > 100 µM (inactive) | GI50 (SW-620): > 100 µM (inactive) | GI50 (OVCAR-3): 81.3 µM (inactive) | GI50 (UACC-257): > 100 µM (inactive) | GI50 (U-251): > 100 µM (inactive) | GI50 (SK-MEL-2): > 100 µM (inactive) | GI50 (HOP-18): > 100 µM (inactive) | GI50 (IGROV-1): > 100 µM (inactive) | GI50 (HT-29): > 100 µM (inactive) | GI50 (SF-539): > 100 µM (inactive) | GI50 (SK-MEL-5): 69 µM (inactive) | GI50 (COLO 205): > 100 µM (inactive) | GI50 (SK-MEL-28): > 100 µM (inactive) | GI50 (NCI-H460): > 100 µM (inactive) | GI50 (HOP-92): > 100 µM (inactive) | GI50 (TK-10): > 100 µM (inactive) | GI50 (M14): > 100 µM (inactive) | GI50 (NCI-H226): > 100 µM (inactive) | GI50 (EKVX): > 100 µM (inactive) | GI50 (A549): > 100 µM (inactive) | GI50 (KM12): > 100 µM (inactive) | GI50 (CCRF-CEM): 86.3 µM (inactive) | GI50 (SNB-78): > 100 µM (inactive) | GI50 (KM-20L2): > 100 µM (inactive) | GI50 (SN12C): > 100 µM (inactive) | GI50 (OVCAR-5): > 100 µM (inactive) | GI50 (HCT-116): 74.5 µM (inactive) | GI50 (UACC-62): 89.3 µM (inactive) | GI50 (LOX IMVI): > 100 µM (inactive) | GI50 (SK-OV-3): > 100 µM (inactive) | GI50 (786-0): > 100 µM (inactive) | GI50 (SF-295): > 100 µM (inactive) | GI50 (A498): > 100 µM (inactive) | GI50 (SNB-19): > 100 µM (inactive) | GI50 (HCC 2998): > 100 µM (inactive) | GI50 (RPMI-8226): 42.4 µM (inactive) | GI50 (DMS-273): 78.5 µM (inactive)

CCOc1ccc2[nH]c3c(C)c4cc[n+](C)cc4c(C)c3c2c1
GI50 (UO-31): 20.9 µM (inactive) | GI50 (NCI-H23): 0.838 µM (active) | GI50 (K562): 2.1 µM (inactive) | GI50 (OVCAR-4): 3.61 µM (inactive) | GI50 (NCI-H522): 1.11 µM (active) | GI50 (SF-268): 0.271 µM (active) | GI50 (RXF 393): 8.71 µM (inactive) | GI50 (DLD-1): 1.66 µM (inactive) | GI50 (SW-620): 2.05 µM (inactive) | GI50 (OVCAR-3): 3.93 µM (inactive) | GI50 (UACC-257): 4.25 µM (inactive) | GI50 (U-251): 0.228 µM (active) | GI50 (SK-MEL-2): 2.42 µM (inactive) | GI50 (HOP-18): 4.03 µM (inactive) | GI50 (IGROV-1): 2.25 µM (inactive) | GI50 (HT-29): 3.99 µM (inactive) | GI50 (SF-539): 0.65 µM (active) | GI50 (SK-MEL-5): 1.55 µM (inactive) | GI50 (SK-MEL-28): 3.1 µM (inactive) | GI50 (NCI-H460): 1.89 µM (inactive) | GI50 (HOP-92): 2.5 µM (inactive) | GI50 (HL-60): 7.85 µM (inactive) | GI50 (LXFL 529): 0.348 µM (active) | GI50 (M14): 8.41 µM (inactive) | GI50 (NCI-H226): 0.451 µM (active) | GI50 (EKVX): 4.24 µM (inactive) | GI50 (A549): 1.95 µM (inactive) | GI50 (KM12): 2.4 µM (inactive) | GI50 (CCRF-CEM): 2.88 µM (inactive) | GI50 (SNB-78): 0.662 µM (active) | GI50 (KM-20L2): 4.95 µM (inactive) | GI50 (SN12C): 0.279 µM (active) | GI50 (HCT-116): 3 µM (inactive) | GI50 (UACC-62): 2.77 µM (inactive) | GI50 (SK-OV-3): 2.92 µM (inactive) | GI50 (786-0): 0.255 µM (active) | GI50 (SF-295): 0.25 µM (active) | GI50 (HCC 2998): 3.27 µM (inactive) | GI50 (RPMI-8226): 18.3 µM (inactive)
